# Data as given in patent publication US9073821B2, “Hydroxamic acid derivative” (priority 2010, dated 2015).
# Where two headings read alike, the source gives them in different places.
# How the values were obtained:
# E. coli strain ATCC25922 = test: Antimicrobial activity, MIC by broth microdilution; assay type: cell-based; conditions: Escherichia coli, Table 4, 35° C., 18 hours, read-out: E. coli ATCC 25922 strain MIC
# Text: (§1) Test 3: Evaluation of Antimicrobial Activity For minimum inhibitory concentration (MIC) measurement, the following broth microdilution method was applied as adapted from the standard procedure recommended by the CLSI (Clinical and Laboratory Standards Institute). The bacteria used were Pseudomonas aeruginosa strain TS88 (clinical isolate), E. coli strain ATCC25922, and Klebsiella pneumoniae strain ATCC13883. After culture overnight on a heart infusion agar medium, the cells of a test bacterium were scraped off and suspended to give a turbidity of level 0.5 on the McFarland scale; the suspension was then diluted 10 fold to prepare an inoculum solution. A 0.005 mL aliquot of the inoculum solution was inoculated in a cation-adjusted Mueller-Hinton broth medium containing a test compound and cultured at 35° C. for 18 hours. A minimum drug concentration at which no cell growth was visible to the naked eye was designated as MIC.
# [1] = test system: Klebsiella pneumoniae strain ATCC13883; test: Antimicrobial activity, MIC by broth microdilution; assay type: cell-based; conditions: Table 4, 35° C., 18 hours, read-out: Klebsiella pneumoniae ATCC 13883 strain MIC
# Text: as §1
# [2] = test system: Pseudomonas aeruginosa strain TS88 (clinical isolate); test: Antimicrobial activity, MIC by broth microdilution; assay type: cell-based; conditions: 18 hours
# Text: as §1
# [3] = molecular target: Pseudomonas aeruginosa LpxC enzyme (Pseudomonas aeruginosa (strain ATCC 15692 / DSM 22644 / CIP 104116 / JCM 14847 / LMG 12228 / 1C / PRS 101 / PAO1), UniProt P47205); test: biochemical; assay type: biochemical; conditions: Table 1; read-out: Pseudomonas aeruginosa LpxC IC50
# [4] = Table 4, 35° C., read-out: Pseudomonas aeruginosa TS88 strain MIC
# [5] = Table 1, 35° C., read-out: MIC Pseudomonas aeruginosa TS88 strain
MIC (E. coli strain ATCC25922),MIC [1],"MIC [2, 4]",SMILES,IC50 [3],"MIC [2, 5]"
0.5 µg/mL,2 µg/mL,1 µg/mL,"CNC(=O)[C@@](C)(C(=O)NO)N(C)C(=O)c1ccc(C#Cc2ccc(CN3CC4(COC4)C3)cc2)cc1 [Compound 416, (2S)-N-hydroxy-N′,2-dimethyl-2-{methyl[(4-{[4-(2-oxa-6-azaspiro[3.3]hept-6-ylmethyl)phenyl]ethynyl}phenyl)carbonyl]amino}propanediamide]",,
0.125 µg/mL,0.5 µg/mL,0.5 µg/mL,"CNC(=O)[C@@](C)(C(=O)NO)N(C)C(=O)c1ccc(-c2ccc(SC)cc2)cc1 [Compound 406, (2S)-N-hydroxy-N′,2-dimethyl-2-(methyl {[4′-(methylsulfanyl)biphenyl-4-yl]carbonyl}amino)propanediamide]",,
,,,"CNc1ccc(-c2ccc(C(=O)N(C)C(C(=O)NO)C(=O)NCc3cc(C)on3)cc2)cc1 (centres unmarked) [Compound 77, N-hydroxy-2-(methyl {[4′-(methylamino)biphenyl-4-yl]carbonyl}amino)-N′-[(5-methyl-1,2-oxazol-3-yl)methyl]propanediamide]",7.5 nM,4 µg/mL
,,,"CNC(=O)C(C(=O)NO)N(C)C(=O)c1ccc(-c2ccc3c(c2)OCO3)cc1 (centres unmarked) [Compound 8, 2-{[4-(1,3-benzodioxol-5-yl)benzoyl](methyl)amino}-N-hydroxy-N′-methylpropanediamide]",5 nM,0.5 µg/mL
,,,"CNC(=O)C(C(=O)NO)N(C)C(=O)c1ccc(-c2ccc(OC(F)(F)F)cc2)cc1 (centres unmarked) [Compound 52, N-hydroxy-N′-methyl-2-(methyl {[4′-(trifluoromethoxy)biphenyl-4-yl]carbonyl}amino)propanediamide]",4.6 nM,1 µg/mL
0.5 µg/mL,2 µg/mL,1 µg/mL,"CNC(=O)[C@@](C)(C(=O)NO)N(C)C(=O)c1ccc(C#Cc2ccc(CN3CCC(OC)CC3)cc2)cc1 [Compound 565, (2S)-N-hydroxy-2-[{[4-({4-[(4-methoxypiperidin-1-yl)methyl]phenyl}ethynyl)phenyl]carbonyl}(methyl)amino]-N′,2-dimethylpropanediamide]",,
1 µg/mL,2 µg/mL,1 µg/mL,"CNC(=O)[C@@](C)(C(=O)NO)N(C)C(=O)c1ccc(C#Cc2ccc(C3(NC)CC3)cc2)cc1 [Compound 435, (2S)-N-hydroxy-N′,2-dimethyl-2-(methyl {[4-({4-[1-(methylamino)cyclopropyl]phenyl}ethynyl)phenyl]carbonyl}amino)propanediamide]",,
,,,"CNC(=O)C(C(=O)NO)N(C)C(=O)c1ccc(-c2ccccc2)c(F)c1 (centres unmarked) [Compound 61, 2-{[(2-fluorobiphenyl-4-yl)carbonyl](methyl)amino}-N-hydroxy-N′-methylpropanediamide]",9.2 nM,2 µg/mL
,,,"CNC(=O)C(C(=O)NO)N(C)C(=O)c1ccc(-c2ccc3c(c2)CCO3)cc1 (centres unmarked) [Compound 188, 2-{[4-(2,3-dihydro-1-benzofuran-5-yl)benzoyl](methyl)amino}-N-hydroxy-N′-methylpropanediamide]",5 nM,0.5 µg/mL
,,,"CNC(=O)C(C(=O)NO)N(C)C(=O)c1ccc(-c2ccc(F)cc2)cc1 (centres unmarked) [Compound 6, 2-{[(4′-fluorobiphenyl-4-yl)carbonyl](methyl)amino}-N-hydroxy-N′-methylpropanediamide]",7.1 nM,1 µg/mL
,,,"CNC(=O)C(C(=O)NO)N(C)C(=O)c1ccc(-c2ccc3c(c2)OC(OC)O3)cc1 (centres unmarked) [Compound 94, N-hydroxy-2-{[4-(2-methoxy-1,3-benzodioxol-5-yl)benzoyl](methyl)amino}-N′-methylpropanediamide]",5.6 nM,2 µg/mL
0.25 µg/mL,1 µg/mL,1 µg/mL,"CNC(=O)[C@@](C)(C(=O)NO)N(C)C(=O)c1ccc(C#Cc2ccc(CN3CC(OCCF)C3)cc2)cc1 [Compound 559, (2S)-2-[({4-[(4-{[3-(2-fluoroethoxy)azetidin-1-yl]methyl}phenyl)ethynyl]phenyl}carbonyl)(methyl)amino]-N-hydroxy-N′,2-dimethylpropanediamide]",,
0.0625 µg/mL,0.25 µg/mL,0.5 µg/mL,"CNC(=O)[C@@](C)(C(=O)NO)N(C)C(=O)c1ccc(C#Cc2ccc(CNCc3ccco3)cc2)cc1 [Compound 417, (2S)-2-[({4-[(4-{[(furan-2-ylmethyl)amino]methyl}phenyl)ethynyl]phenyl}carbonyl)(methyl)amino]-N-hydroxy-N′,2-dimethylpropanediamide]",,
,,,"CNC(=O)C(C(=O)NO)N(C)C(=O)c1ccc(-c2ccc(NC)cc2)cc1 (centres unmarked) [Compound 2, N-hydroxy-N′-methyl-2-(methyl {[4′-(methylamino)biphenyl-4-yl]carbonyl}amino)propanediamide]",7.1 nM,0.5 µg/mL
,,,"CNC(=O)C(C(=O)NO)N(C)C(=O)c1ccc(-c2ccc(N(C)C)cc2)cc1 (centres unmarked) [Compound 43, 2-[{[4′-(dimethylamino)biphenyl-4-yl]carbonyl}(methyl)amino]-N-hydroxy-N′-methylpropanediamide]",7.2 nM,1 µg/mL
,,,"CNC(=O)C(C(=O)NO)N(C)C(=O)c1ccc(-c2ccc(COC)cc2)cc1 (centres unmarked) [Compound 4, N-hydroxy-2-[{[4′-(methoxymethyl)biphenyl-4-yl]carbonyl}(methyl)amino]-N′-methylpropanediamide]",6.1 nM,1 µg/mL
,,,"CNC(=O)C(C(=O)NO)N(C)C(=O)c1ccc(-c2ccc(OCCO)cc2)cc1 (centres unmarked) [Compound 153, N-hydroxy-2-[{[4′-(2-hydroxyethoxy)biphenyl-4-yl]carbonyl}(methyl)amino]-N′-methylpropanediamide]",5.7 nM,2 µg/mL
0.25 µg/mL,0.5 µg/mL,0.5 µg/mL,"CNC(=O)[C@@](C)(C(=O)NO)N(C)C(=O)c1ccc(C#Cc2ccc(CNC3CC3)cc2)cc1 [Compound 553, (2S)-2-[{[4-({4-[(cyclopropylamino)methyl]phenyl}ethynyl)phenyl]carbonyl}(methyl)amino]-N-hydroxy-N′,2-dimethylpropanediamide]",,
,,,"CNC(=O)C(C(=O)NO)N(C)C(=O)c1ccc(C#Cc2ccccc2)cc1 (centres unmarked) [Compound 218, N-hydroxy-N′-methyl-2-{methyl[4-(phenylethynyl)benzoyl]amino}propanediamide]",7.2 nM,1 µg/mL
,,,"CNC(=O)C(C(=O)NO)N(C)C(=O)c1ccc(-c2ccccc2)cc1 (centres unmarked) [Compound 1, 2-[(Biphenyl-4-ylcarbonyl)(methyl)amino]-N-hydroxy-N′-methylpropanediamide]",7.7 nM,0.5 µg/mL
,,,CNC(=O)C(C(=O)NO)N(C)C(=O)c1ccc(-c2ccc(OC)cc2)cc1 (centres unmarked) [Compound 3],3.3 nM,0.5 µg/mL
,,,"CNC(=O)C(C(=O)NO)N(C)C(=O)c1ccc(-c2ccc(CF)cc2)cc1 (centres unmarked) [Compound 237, 2-[{[4′-(fluoromethyl)biphenyl-4-yl]carbonyl}(methyl)amino]-N-hydroxy-N′-methylpropanediamide]",4.5 nM,0.5 µg/mL
,,,"Cc1cc(CNC(=O)C(C(=O)NO)N(C)C(=O)c2ccc(-c3ccccc3)cc2)no1 (centres unmarked) [Compound 172, 2-[(Biphenyl-4-ylcarbonyl)(methyl)amino]-N-hydroxy-N′-[(5-methyl-1,2-oxazol-3-yl)methyl]propanediamide]",7.1 nM,2 µg/mL
